# Patent US20040152694A1, “Methods and compositions for treating inflammatory disorders of the airways” (priority 2003, published 2004)
# Where two headings read alike, the source gives them in different places.
# Experiments:
# [1] = tested on: trachea of ovalbumin-sensitized and challenged BN-rats; assay: Tracheal contraction to acetylcholine ex vivo after antigen challenge, oral pretreatment; type: in vivo, rat; settings: for MAX: Contraction at maximal Ach concentration relative to control / ED50: −log M acetylcholine (Ach) causing 50% contraction relative to control: 3.0 mg/kg orally 2 hours before antigen challenge, mean ± SEM; for MAX: Contraction at maximal Ach concentration relative to control: control = 100; for ED50: −log M acetylcholine (Ach) causing 50% contraction relative to control: trachea 48 h post challenge; for Tracheal hyper-reactivity to acetylcholine after ovalbumin challenge: dose of 3.0 mg/kg, oral
# Procedure: (§1) Rats were actively sensitized to ovalbumin (OA) by a subcutaneous injection of 0.5 ml of OA/Al(OH3) gel mixture (2 mg OA+10 g Al(OH3)/100 ml saline) on day 1 with subsequent subcutaneous injections (10 mg OA+10 g Al(OH3)/100 ml saline) given on days 14 and 21. On day 28, animals received GYKI-52466, GYKI-47261 or GYKI-53773 compound orally (0.3 mg/kg or 3.0 mg/kg) 2 hours before antigen challenge. Antigen challenge was performed by inhalation of nebulised ovalbumin (1% antigen solution administered in a TSE inhalation system for 1 hour). Animals were sacrificed 48 hours post antigen challenge wherein the tracheas were removed to an organ bath. Dissected tracheas were allowed to equilibrate for 30 minutes before measuring tracheal spasmogenic response curves to acetylcholine (Ach).
# [2] = tested on: trachea of ovalbumin-sensitized and challenged BN-rats; assay: Tracheal contraction to acetylcholine ex vivo after antigen challenge, local (intratracheal) treatment with GYKI-53773; type: in vivo, rat
# Procedure: as §1
# The procedures of Example 2 were followed in order to compare the effects of antigen exposure and local (intratracheal) GYKI 53773 treatments on Ach-induced tracheal contractions in allergen sensitized and challenged rats.
# [3] = tested on: isolated guinea pig trachea; assay: Endothelin-1-induced contraction of isolated guinea pig trachea in vitro; settings: for Emax at 10 µM / Emax at 30 µM: Cavia porcellus, 25 min, read-out: Contraction %: percent of maximal response to 4.5 μM histamine
# Procedure: In order to measure the effect of GYKI 52466 and 53773 (talampanel) on endothelin-1-induced contractions in isolated guinea pig trachea the following procedures were followed. The tracheae of male Dunkin-Hartley guinea pigs (350-450 g) were removed; helical strips were prepared and mounted in an organ bath. After equilibration, the strips were contracted with endothelin-1 and when contraction had reached the plateau, different concentrations of GYKI-52466, 53773 or the suitable vehicles were added into the chambers. Changes in tensions were expressed as the percentage of the maximal response to 4.5 μM histamine measured at the beginning of the experiment.
# [4] = tested on: airways epithelial cells of antigen sensitized BN rats; assay: Allergen-induced mucus production of airways epithelial cells, PAS staining; type: in vivo, rat; settings: mean ± SEM
# Procedure: Antigen sensitized BN rats were pretreated orally with 0.3, 3 and 30 mg/kg GYKI-52466 or GYKI-53773 (Talampanel) 2 hours prior to antigen challenge using a similar protocol that was described in Example 2. Lungs were isolated 48 hours subsequent to antigen exposure; samples were fixed in phosphate-buffered 8% formalin. Specimens were then routinely processed for histochemistry. In the periodic acid-Schiff stained (PAS) and haematoxylin-eosin counterstained, 5 μm thick sections, all epithelial cells of each airway segments were counted in the whole preparations at a magnification of 400×. The number of PAS(+) [mucus-producing] epithelial cells are expressed as the ratio of all epithelial cells.
# [5] = tested on: Rat aortic smooth muscle cells (primary); assay: Growth factor-induced proliferation of smooth muscle cells, 3H-thymidine incorporation, RASMC; type: cell-based
# Procedure: (§2) Primary and permanently cultured rat aortic smooth muscle cells were made senescent by serum deprivation (0.1% FCS, 48 hours). Proliferation was induced by re-addition of serum (10%) containing the necessary growth factors and the effect of different concentrations of the AMPA receptor modulators on the proliferation of the cells was determined by measuring ^3H-thymidine incorporation.
# [6] = tested on: A7r5 established smooth muscle cell line (ATCC); assay: Growth factor-induced proliferation of smooth muscle cells, 3H-thymidine incorporation, A7r5; type: cell-based, rat
# Procedure: as §2
# [7] = tested on: AMPA receptors; assay: Ventilated, perfused rat lung: AMPA-induced lung injury
# Procedure: The presence/function of AMPA receptors in the lung of experimental animals was investigated in the same model (ventilated perfused rat lung) that was applied for the examination of NMDA-receptors by Said et al., (Proc Natl. Acad. Sci. (USA) 93:4688 (1996). The lung of anesthetized SPRD rats were ventilated and were in situ perfused with a constant flow of Krebs solution. L-arginine, AMPA and AMPA-antagonist were added directly to the perfusate as described by Said et al, supra. As it is shown in Table 2, activation of the AMPA receptors triggered an acute edematous lung injury manifested by the significant increase in airway pressure (PAW) pulmonary artery pressure (PAP) and the ratio of wet and dry weight of the lung after the treatment.
# [8] = tested on: trachea of ovalbumin-sensitized and challenged BN-rats; assay: Tracheal contraction to acetylcholine ex vivo after antigen challenge, systemic (intraperitoneal) NBQX; type: in vivo, rat
# Procedure: as §1
# The procedures of Example 2 were followed in order to compare the effects of antigen exposure and systemic (intraperitoneal) NBQX treatments on Ach-induced tracheal contractions in allergen sensitized and challenged rats.
# [9] = tested on: trachea of ovalbumin-sensitized and challenged BN-rats; assay: Tracheal contraction to acetylcholine ex vivo after antigen challenge, local (intratracheal) NBQX; type: in vivo, rat; settings: for ED50: −log M acetylcholine (Ach) causing 50% contraction relative to control / MAX: Contraction at maximal Ach concentration relative to control: local
# [10] = second dose column (dose number not given)
# [11] = third dose column (dose number not given)
# [12] = 0.3 mg/kg orally 2 hours prior to antigen challenge, lungs 48 hours after
# [13] = 3 mg/kg orally 2 hours prior to antigen challenge
# [14] = 30 mg/kg orally 2 hours prior to antigen challenge
# [15] = AMPA (200 μM) alone in perfusate, SPRD rats
# [16] = third (highest) dose column (dose number not given)
smiles,measurement,setting,value
"CC(=O)N1N=C(c2ccc(N)cc2)c2cc3c(cc2CC1C)OCO3 (single isomer, unassigned; (-)) [GYKI-53773, (−)-1-(4-Aminophenyl)-3-acetyl-4-methyl-3,4-dihydro-7,8-methylenedioxy-5H-2,3-benzodiazepine]",MAX: Contraction at maximal Ach concentration relative to control,[1],85 ± 16
same,ED50: −log M acetylcholine (Ach) causing 50% contraction relative to control,[1],4.64 ± 0.34 −log M
same,Tracheal hyper-reactivity to acetylcholine after ovalbumin challenge,[1],brought this elevation back to control level
same,Allergen-induced airways hyperresponsiveness,"[2]; 1 μg/kg, single administration",strongly reduced the allergen-induced airways hyperresponsiveness
same,ED50: −log M acetylcholine (Ach) causing 50% contraction relative to control,"[2]; first dose column (dose number not given), challenged 7.22, control 5.89",5.80 ± 0.47 −log M
same,MAX: Contraction at maximal Ach concentration relative to control,"[2]; first dose column (dose number not given), challenged 312, control 100",202 ± 66
same,ED50: −log M acetylcholine (Ach) causing 50% contraction relative to control,[2]; [10],5.73 ± 0.39 −log M
same,MAX: Contraction at maximal Ach concentration relative to control,[2]; [10],113 ± 19
same,ED50: −log M acetylcholine (Ach) causing 50% contraction relative to control,[2]; [11],5.68 ± 0.55 −log M
same,MAX: Contraction at maximal Ach concentration relative to control,[2]; [11],129 ± 30
same,Contraction caused by ET-1 in the isolated guinea pig trachea,[3],dose-dependently inhibit the contraction
same,Emax at 10 µM,"[3]; 10 μM, 25 minutes after addition, vehicle 84 ± 8, Mean ± SD (n)",43 ± 9%
same,Emax at 30 µM,"[3]; 30 μM, 25 minutes after addition, vehicle 66 ± 8, Mean ± SD (n)",7 ± 4%
same,% PAS(+) cells of total epithelial cells,[4]; [12],12.34 ± 1.39%
same,% PAS(+) cells of total epithelial cells,[4]; [13],9.49 ± 1.08%
same,% PAS(+) cells of total epithelial cells,[4]; [14],5.02 ± 0.75%
same,Inhibition (% of control) RASMC,[5]; 0.03 μg/ml,26 % of control
same,Inhibition (% of control) RASMC,[5]; 0.3 μg/ml,59 % of control
same,Inhibition (% of control) RASMC,[5]; 3.0 μg/ml,70 % of control
same,Inhibition (% of control) A7r5,[6]; 0.03 μg/ml,21 % of control
same,Inhibition (% of control) A7r5,[6]; 0.3 μg/ml,43 % of control
same,Inhibition (% of control) A7r5,[6]; 3.0 μg/ml,87 % of control
"CNC(=O)N1N=C(c2ccc(N)cc2)c2cc3c(cc2CC1C)OCO3 (single isomer, unassigned; (-)) [GYKI-53784, (−)-1-(4-Aminophenyl)-3-methylcarbamoyl-4-methyl-7,8-methylenedioxy-3,4-dihydro-5H-2,3-benzodiazepine]",W/D: Ratio of wet and dry weight of lungs after 60-minute perfusion,"[7]; AMPA (200 μM) + 53784 (200 μM), AMPA alone 14.8, control 6.6",14.3 ± 5.6 (4)
same,PAP: Pulmonary artery pressure after 60 minutes perfusion as a percent of 0 minute pressure,"[7]; AMPA (200 μM) + 53784 (200 μM), AMPA alone 147.9, control 96.0",114.0 ± 23.0 (4) percent
same,PAW: Airway pressure after 60 minute perfusion as a percent of 0 minute pressure,"[7]; AMPA (200 μM) + 53784 (200 μM), AMPA alone 183.4, control 99.3",110.3 ± 19.1 (4) percent
same,Effect on airway and pulmonary arterial pressures,[7]; AMPA-treated perfused rat lung,decreased both the airway and the pulmonary arterial pressures
"Cc1onc(O)c1CC(N)C(=O)O (stereo not drawn) [AMPA, α-Amino-3-hydroxy-5-methyl-4-isoxazole propionate]",PAP: Pulmonary artery pressure after 60 minutes perfusion as a percent of 0 minute pressure,[7]; [15],147.9 ± 8.6 (7) percent
same,W/D: Ratio of wet and dry weight of lungs after 60-minute perfusion,[7]; [15],14.8 ± 3.9 (3)
same,PAW: Airway pressure after 60 minute perfusion as a percent of 0 minute pressure,"[7]; AMPA (200 μM) alone in perfusate, SPRD rats, n in brackets",183.4 ± 15.6 (7) percent
Cc1cn2c(n1)Cc1ccc(Cl)cc1C(c1ccc(N)cc1)=N2 [GYKI-47261],MAX: Contraction at maximal Ach concentration relative to control,[1],98 ± 13
same,ED50: −log M acetylcholine (Ach) causing 50% contraction relative to control,[1],5.26 ± 0.30 −log M
same,Tracheal hyper-reactivity to acetylcholine after ovalbumin challenge,[1],brought this elevation back to control level
"CC1=NN=C(c2ccc(N)cc2)c2cc3c(cc2C1)OCO3 [GYKI-52466, 1-(4-Aminophenyl)-4-methyl-7,8-methylenedioxy-5H-2,3-benzodiazepine]",MAX: Contraction at maximal Ach concentration relative to control,[1],135 ± 32
same,ED50: −log M acetylcholine (Ach) causing 50% contraction relative to control,[1],5.60 ± 0.46 −log M
same,Tracheal hyper-reactivity to acetylcholine after ovalbumin challenge,[1],brought this elevation back to control level
same,Contraction caused by ET-1 in the isolated guinea pig trachea,[3],dose-dependently inhibit the contraction
same,Emax at 10 µM,[3],53 ± 7%
same,Emax at 30 µM,[3],23 ± 9%
same,% PAS(+) cells of total epithelial cells,[4]; [12],16.09 ± 1.82%
same,% PAS(+) cells of total epithelial cells,[4]; [13],15.18 ± 1.68%
same,% PAS(+) cells of total epithelial cells,[4]; [14],14.17 ± 1.59%
"NS(=O)(=O)c1cccc2c1c([N+](=O)[O-])cc1[nH]c(=O)c(=O)[nH]c12 [NBQX, 2,3-Dihydroxy-6-nitro-7-sulphamoyi-benzo(f)quinoxaline]",ED50: −log M acetylcholine (Ach) causing 50% contraction relative to control,"[8]; 0.15 mg/kg intraperitoneal, challenged 7.31, control 6.16",6.29 ± 0.51 −log M
same,MAX: Contraction at maximal Ach concentration relative to control,"[8]; 0.15 mg/kg intraperitoneal, challenged 308, control 100",178 ± 65
same,ED50: −log M acetylcholine (Ach) causing 50% contraction relative to control,[8]; 1.5 mg/kg intraperitoneal,4.98 ± 0.80 −log M
same,MAX: Contraction at maximal Ach concentration relative to control,[8]; 1.5 mg/kg intraperitoneal,115 ± 30
same,ED50: −log M acetylcholine (Ach) causing 50% contraction relative to control,[8]; 15 mg/kg intraperitoneal,5.11 ± 0.55 −log M
same,MAX: Contraction at maximal Ach concentration relative to control,[8]; 15 mg/kg intraperitoneal,125 ± 32
same,"Allergen-induced airways hypersensitivity, ED50 and maximal provoked response","[8]; intraperitoneal, dose-dependent",strongly inhibits both parameters
same,Allergen-induced airways hypersensitivity,"[9]; local administration, statistically significant only at the highest applied dose",inhibits allergen-induced airways hypersensitivity in a dose-dependent manner
same,ED50: −log M acetylcholine (Ach) causing 50% contraction relative to control,"[9]; first dose column (dose number not given), challenged 6.70, control 5.68",5.85 ± 0.59 −log M
same,MAX: Contraction at maximal Ach concentration relative to control,"[9]; first dose column (dose number not given), challenged 327, control 100",308 ± 128
same,ED50: −log M acetylcholine (Ach) causing 50% contraction relative to control,[9]; [10],5.20 ± 0.72 −log M
same,MAX: Contraction at maximal Ach concentration relative to control,[9]; [10],108 ± 28
same,ED50: −log M acetylcholine (Ach) causing 50% contraction relative to control,[9]; [16],3.44 ± 0.36 −log M
same,MAX: Contraction at maximal Ach concentration relative to control,[9]; [16],60 ± 14
same,Inhibition (% of control) RASMC,[5]; 0.03 μg/ml,1 % of control
same,Inhibition (% of control) RASMC,[5]; 0.3 μg/ml,5 % of control
same,Inhibition (% of control) RASMC,[5]; 3.0 μg/ml,94 % of control
